Data taken from patent publication US20210299101A1, “SYSTEMS, METHODS, AND KITS FOR DIAGNOSTICS AND TREATMENT OF VIRAL RESPIRATORY INFECTION” (priority 2020, published 2021).

Legend:
SARS-CoV-2 [1] = assay: Example 3: double-blinded placebo controlled prophylaxis study in male health care workers, SARS-CoV-2 test at day 28; type: in vivo, human; details: 750 mg/day oral, of 18 male health care workers negative at baseline (placebo 3 of 10)
SARS-CoV-2 [2] = type: in vivo, human; details: 3 admitted patients (standard care 4.0)
Experimental: Example 19: A controlled study was conducted on 90 male patients with average age of 51 years old. […] The treatment arm was prescribed nilutamide (300 mg) orally once daily at the start of the trial, the control arm received standard care.
The patients BCRSS score was 1.3.

[3] = test system: fetal pulmonary surfactant production; details: rabbits, males and females; cited from earlier work
SARS-CoV-2 [4] = assay: Example 5: double-blinded placebo controlled prophylaxis study in male health care workers, SARS-CoV-2 test at day 28; type: in vivo, human; details: 0.25 mg/day oral
SARS-CoV-2 [5] = assay: Example 7: double-blinded placebo controlled study in hospitalized male SARS-CoV-2 patients, survival; type: in vivo, human; details: following 15 days of treatment; injection 300 mg; 60 hospitalized male patients (control group 64%)
Experimental: 60 subjects were given an injection of cyproterone acetate (300 mg). The other 53 subjects received standard treatment. Following 15 days of treatment, 84% of the subjects in the cyproterone acetate survived while 64% of the control group survived.

furin = details: human hepatoma cell lines (Chen et al. 2008); cited from earlier work
SARS-CoV-2 [6] = assay: Example 24: double-blinded placebo controlled study in COVID-19 outpatients, rate of hospitalization at day 14; type: in vivo, human; details: following 14 days of treatment; 80 mg qd; 28 male and female outpatients, score 1-2 on 8 point COVID-19 ordinal scale (control group 20%)
Experimental: The primary outcome was the rate of hospitalization at day 14.
28 subjects were assigned to HC-1119 treatment 80 mg qd. The other 28 subjects received standard treatment+HC-1119 placebo. Following 14 days of treatment, 1% of the subjects in the HC-1119 were hospitalized compared to 20% of the subjects in the control group were hospitalzied.

SARS-CoV-2 [7] = assay: Example 21: double-blinded placebo controlled study in hospitalized male SARS-CoV-2 patients, survival at day 14; type: in vivo, human; details: following 14 days of treatment; 80 mg qd; 15 hospitalized male patients, score 4-6 on 8 point COVID-19 ordinal scale (control group 55%)
Experimental: The primary outcome was survival at day 14.
15 subjects were assigned to HC-1119 treatment 80 mg qd. The other 15 subjects received standard treatment+HC-1119 placebo.

SARS-CoV-2 [8] = assay: Example 22: double-blinded placebo controlled study in hospitalized female SARS-CoV-2 patients, survival; type: in vivo, human; details: following 14 days of treatment; 80 mg qd; 15 hospitalized female patients, score 4-6 on 8 point COVID-19 ordinal scale (control group 67%)
Experimental: The patients were taking birth control and agreed not to engage in unprotected sex for at least 90 days post last dosing. None of the women were lactating.
15 subjects were assigned to HC-1119 treatment 80 mg qd. The other 13 subjects received standard treatment+HC-1119 placebo.

SARS-CoV-2 [9] = assay: Example 23: open label study in hospitalized male and female SARS-CoV-2 patients, survival; type: in vivo, human; details: average of 28 days of treatment; 80 mg qd; 31 hospitalized male and female patients, score 6 on 8 point COVID-19 ordinal scale (subjects not in study 3%)
SARS-CoV-2 [10] = type: in vivo; details: 1 admitted patient (standard care average 3.6)
SARS-CoV-2 [11] = assay: Example 4: double-blinded placebo controlled study in hospitalized male SARS-CoV-2 patients, survival; type: in vivo, human; details: following 15 days of treatment; 160 mg qd; 15 hospitalized male patients (control group 7%)
Experimental: 15 subjects were assigned to enzalutamide treatment 160 mg qd. The other 15 subjects received standard treatment. Following 15 days of treatment, 20% of the subjects in the enzalutamide survived while 7% of the control group survived.

SARS-CoV-2 [12] = assay: Example 2: double-blinded placebo controlled prophylaxis study in health care workers, SARS-CoV-2 test at day 28; details: 10 mg/Kg/day oral, of 50 male and female health care workers negative at baseline (placebo 9 of 47)
Experimental: Example 2: A double-blinded placebo controlled study was conducted on 97 male and female health care workers working at two hospital emergency room departments.
At baseline, all subjects were tested negative for SARS-CoV-2 infection. […] The reminder 47 subjects were given a placebo oral pill. At day 28 all subjects were tested for SARS-CoV-2 infection.

CC(C)C(=O)Nc1ccc([N+](=O)[O-])c(C(F)(F)F)c1 [flutamide]
subjects tested positive for SARS-CoV-2 (SARS-CoV-2 [1]): 1 subject

CC1(C)NC(=O)N(c2ccc([N+](=O)[O-])c(C(F)(F)F)c2)C1=O [nilutamide]
BCRSS score of admitted patients (SARS-CoV-2 [2]): 1.3

C[C@]12CCC(=O)C[C@@H]1CC[C@@H]1[C@@H]2CC[C@]2(C)[C@@H](O)CC[C@@H]12 [dihydrotestosterone]
effect on fetal pulmonary surfactant production [3]: inhibit fetal pulmonary surfactant production

C[C@]12C=CC(=O)N[C@@H]1CC[C@@H]1[C@@H]2CC[C@]2(C)[C@@H](C(=O)Nc3cc(C(F)(F)F)ccc3C(F)(F)F)CC[C@@H]12 [dutasteride]
subjects tested positive for SARS-CoV-2 (percent) (SARS-CoV-2 [4]; 68 male health care workers (placebo 17%)): 4.4% | subjects tested positive for SARS-CoV-2 (number) (SARS-CoV-2 [4]; of 68 male health care workers negative at baseline (placebo 9 of 53)): 3 subject

CC(=O)O[C@]1(C(C)=O)CC[C@H]2[C@@H]3C=C(Cl)C4=CC(=O)[C@@H]5C[C@@H]5[C@]4(C)[C@H]3CC[C@@]21C [cyproterone acetate]
subjects survived (SARS-CoV-2 [5]): 84%

N[C@@H](Cc1cc(I)c(Oc2ccc(O)c(I)c2)c(I)c1)C(=O)O [thyroid hormone T3]
furin expression (furin): up-regulated

[2H]C([2H])([2H])NC(=O)c1ccc(N2C(=S)N(c3ccc(C#N)c(C(F)(F)F)c3)C(=O)C2(C)C)cc1F [HC-1119]
subjects hospitalized (SARS-CoV-2 [6]): 1% | subjects survived (SARS-CoV-2 [7]): 96.3% | subjects survived (SARS-CoV-2 [8]): 91.8% | subjects survived (SARS-CoV-2 [9]): 72%

CC(O)c1cc(C(=O)N[C@@H](C)Cn2ccc(-c3ccc(C#N)c(Cl)c3)n2)[nH]n1 (some centres unmarked) [darolutamide]
BCRSS score of the admitted patient (SARS-CoV-2 [10]): 2

CNC(=O)c1ccc(N2C(=S)N(c3ccc(C#N)c(C(F)(F)F)c3)C(=O)C2(C)C)cc1F [enzalutamide]
subjects survived (SARS-CoV-2 [11]): 20%

C=C(C)[C@@H]1CCC(C)=C[C@H]1c1c(O)cc(CCCCC)cc1O [cannabidiol]
subjects tested positive for SARS-CoV-2 (SARS-CoV-2 [12]): 2 subjects
